Measurements taken from patent publication US20230114083A1, “PHOTOACOUSTIC IMAGING AGENT” (National University Corporation Hokkaido University, priority 2021, published 2023).
Counter-ions that a name gives are not always drawn. Like-named read-outs stand apart in the source and are kept apart here.

Test: Measurement of optical absorption spectrum and its pH dependence (ultraviolet visible spectrophotometer)
Assay type: physicochemical
Conditions: for absorption maxima / shift of maximum absorption wavelength: in DMSO; for absorption maxima / pH dependence of absorption properties: 1 μM; for pH dependence of absorption properties: phosphate buffers of various pH, 30% by volume DMSO; for shift of maximum absorption wavelength: aryl piperazine cyanines
Protocol: In order to investigate the optical absorption properties of the synthesized ICG derivatives, absorption spectra were measured and their pH dependence was examined using an ultraviolet visible spectrophotometer at a concentration of 1 μM either in dimethyl sulfoxide (DMSO) or in phosphate buffers of various pH with DMSO as a cosolvent (30% by volume of DMSO and 70% by volume of phosphate buffer).
For each ICG derivative, an absorption spectrum consisted of relative absorbance was obtained by setting the absorbance of the absorption peak near 700 nm in DMSO (absorbance at the maximum absorption wavelength) to 1.
The optical absorption spectra of the IGC derivative PBA-Cy was measured at various pH values in the same manner as in Example 1.
The optical absorption properties of the synthesized ICG derivatives (PPA-Cy and SS-PPA-Cy) were investigated in the same manner as in Example 1, and their pH dependence was examined.

[1] = phosphate buffers of various pH with DMSO as cosolvent, from pH dependence of absorption spectra, read-out: pKa

absorption maxima | Compound | pH dependence of absorption properties | further results
around 800 nm | 2-[2-[3-[2-[1,3-dihydro-3,3-dimethyl-1-(3-sulfopropyl)-2H-benz[e]indol-2-ylidene]ethylidene]-2-(4-methylsulfonyl-1-piperazinyl)-1-cyclohexen-1-yl]ethenyl]-3,3-dimethyl-1-(3-sulfopropyl)-3H-benz[e]indolium, Inner Salt, Sodium Salt [MSP-Cy] | – | –
~700 nm | 2-[2-[3-[2-[1,3-dihydro-3,3-dimethyl-1-(3-sulfopropyl)-2H-benz[e]indol-2-ylidene]ethylidene]-2-(4-methyl-1-piperazinyl)-1-cyclohexen-1-yl]ethenyl]-3,3-dimethyl-1-(3-sulfopropyl)-3H-benz[e]indolium, Inner Salt, Sodium Salt [MP-Cy] | the maximum absorption wavelength shifted to the longer wavelength side as the pH became more acidic | –
~700 nm | CC1(C)C(=CC=C2CCCC(C=CC3=[N+](CCCS(=O)(=O)[O-])c4ccc5ccccc5c4C3(C)C)=C2N2CCCCC2)N(CCCS(=O)(=O)[O-])c2ccc3ccccc3c21.[Na+] [Piperi-Cy, 2-[2-[3-[2-[1,3-dihydro-3,3-dimethyl-1-(3-sulfopropyl)-2H-benz[e]indol-2-ylidene]ethylidene]-2-(1-piperidinyl)-1-cyclohexen-1-yl]ethenyl]-3,3-dimethyl-1-(3-sulfopropyl)-3H-benz[e]indolium, Inner Salt, Sodium Salt] | – | –
around 800 nm | 2-[2-[3-[2-[1,3-Dihydro-3,3-dimethyl-1-(3-sulfopropyl)-2H-benz[e]indol-2-ylidene]ethylidene]-2-(4-acetyl-1-piperazinyl)-1-cyclohexen-1-yl]ethenyl]-3,3-dimethyl-1-(3-sulfopropyl)-3H-benz[e]indolium, Inner Salt, Sodium Salt [AcP-Cy] | – | –
– | 2-[2-[2-[4-(2-carboxyethyl)piperazinyl]-3-[2-[1,3-dihydro-3,3-dimethyl-1-(3-sulfopropyl)-7-sulfo-2H-benz[e]indol-2-ylidene]ethylidene]cyclohexen-1-yl]ethenyl]-3,3-dimethyl-1-(3-sulfopropyl)-7-sulfo-3H-benz[e]indolium, Inner Salt, Sodium Salt [SS-PPA-Cy] | the maximum absorption wavelength shifted to the longer wavelength side as the pH became more acidic | pKa: 6.8
– | CC1(C)C(/C=C/C2=C(N3CCN(CCC(=O)[O-])CC3)C(=C/C=C3/N(CCCS(=O)(=O)[O-])c4ccc5ccccc5c4C3(C)C)/CCC2)=[N+](CCCS(=O)(=O)[O-])c2ccc3ccccc3c21.[Na+].[Na+] [PPA-Cy, 2-[2-[2-[4-(2-carboxyethyl)piperazinyl]-3-[2-[1,3-dihydro-3,3-dimethyl-1-(3-sulfopropyl)-2H-benz[e]indol-2-ylidene]ethylidene]-1-cyclohexenyl]ethenyl]-3,3-dimethyl-1-(3-sulfopropyl)-3H-benz[e]indolium, Inner Salt, Sodium Salt] | the maximum absorption wavelength shifted to the longer wavelength side as the pH became more acidic | pKa [1]: 5.7
– | 2-[2-[3-[2-[1,3-dihydro-3,3-dimethyl-1-(3-sulfopropyl)-2H-benz[e]indol-2-ylidene]ethylidene]-2-[1-(4-cyanophenyl)-piperazinyl]-1-cyclohexen-1-yl]ethenyl]-3,3-dimethyl-1-(3-sulfopropyl)-3H-benz[e]indolium, Inner Salt, Sodium Salt [Nitrille-PhP-Cy] | – | shift of maximum absorption wavelength: the maximum absorption wavelength was shifted to the longer wavelength side
around 800 nm | CC1(C)C(=CC=C2CCCC(C=CC3=[N+](CCCS(=O)(=O)[O-])c4ccc5ccccc5c4C3(C)C)=C2N2CC[N+](C)(C)CC2)N(CCCS(=O)(=O)[O-])c2ccc3ccccc3c21 [DMP-Cy, 2-[2-[3-[2-[1,3-dihydro-3,3-dimethyl-1-(3-sulfopropyl)-2H-benz[e]indol-2-ylidene]ethylidene]-2-(4-dimethyl-1-piperaziniumyl)-1-cyclohexen-1-yl]ethenyl]-3,3-dimethyl-1-(3-sulfopropyl)-3H-benz[e]indolium, Inner Salt, Sodium Salt] | – | –
– | CC1(C)C(/C=C/C2=C(N3CCN(Cc4ccc(CC(=O)O)cc4)CC3)C(=C/C=C3/N(CCCS(=O)(=O)[O-])c4ccc5ccccc5c4C3(C)C)/CCC2)=[N+](CCCS(=O)(=O)[O-])c2ccc3ccccc3c21.[Na+] [PBA-Cy, 2-[2-[3-[2-[1,3-dihydro-3,3-dimethyl-1-(3-sulfopropyl)-2H-benz[e]indol-2-ylidene]ethylidene]-2-[1-(4-carboxymethylbenzyl)-piperazinyl]-1-cyclohexen-1-yl]ethenyl]-3,3-dimethyl-1-(3-sulfopropyl)-3H-benz[e]indolium, Inner Salt, Sodium Salt] | shifted to the longer wavelength side as the pH became more acidic | pKa [1]: 4.9; molar absorption coefficient (used to calculate PBA-Cy concentration in conjugate solution): 32,000 M^−1 cm^−1
– | 2-[2-[3-[2-[1,3-dihydro-3,3-dimethyl-1-(3-sulfopropyl)-2H-benz[e]indol-2-ylidene]ethylidene]-2- [1-(4-nitrophenyl)-piperazinyl]-1-cyclohexen-1-yl]ethenyl]-3,3-dimethyl-1-(3-sulfopropyl)-3H-benz[e]indolium, Inner Salt, Sodium Salt [Nitro-PhP-Cy] | – | shift of maximum absorption wavelength: the maximum absorption wavelength was shifted to the longer wavelength side

Compound | absorption maxima | pH dependence of absorption properties | further results
CC1(C)C(/C=C/C2=C(N3CCOCC3)C(=C/C=C3/N(CCCS(=O)(=O)[O-])c4ccc5ccccc5c4C3(C)C)/CCC2)=[N+](CCCS(=O)(=O)[O-])c2ccc3ccccc3c21.[Na+] [Mor-Cy, 2-[2-[3-[2-[1,3-dihydro-3,3-dimethyl-1-(3-sulfopropyl)-2H-benz[e]indol-2-ylidene]ethylidene]-2-(4-morpholinyl)-1-cyclohexen-1-yl]ethenyl]-3,3-dimethyl-1-(3-sulfopropyl)-3H-benz[e]indolium, Inner Salt, Sodium Salt] | ~700 nm | no change in absorption properties due to the pH | –
